US7691844B2, “Nonpeptide substituted spirobenzoazepines as vasopressin antagonists” (Ortho-McNeil Pharmaceutical, Inc., priority 2000, dated 2010)

How the values were obtained:
V1a = V1a (Homo sapiens, UniProt P37288); assay: In-vitro receptor binding assay (3H-arginine-8-vasopressin), V1a; conditions: for inhibition at 0.1 µM / inhibition at 1 µM: read-out: Receptor Binding V1a (% Inh. @ concentration in μM)
Description: (§1) (A) In-Vitro Binding Assay […] The reaction plates are allowed to sit at room temperature for one hour. The samples are filtered through Unifilter GF/C plates (presoaked in 0.3 polyethyleneimine). The plates are washed 5 times with cold physiological saline containing 0.05% Tween 20. After drying, the bottom of the filter plates are sealed and 0.025 ml of Microscint-20 is added to each filter. The top of the plate is sealed, and the plate is counted. Non-specific binding is determined by the addition of 1.25 μM […]-vasopressin in those wells. % Inh. is calculated as follows: […]

human V2 receptor = human V2 receptor (Homo sapiens, UniProt P30518); assay: In-vitro receptor binding assay (3H-arginine-8-vasopressin), V2; conditions: for inhibition at 1 µM / inhibition at 0.25 µM / inhibition at 0.225 µM: read-out: Receptor Binding V2 (% Inh. @ concentration in μM)
Chain of human V2 receptor (P30518 whole entry): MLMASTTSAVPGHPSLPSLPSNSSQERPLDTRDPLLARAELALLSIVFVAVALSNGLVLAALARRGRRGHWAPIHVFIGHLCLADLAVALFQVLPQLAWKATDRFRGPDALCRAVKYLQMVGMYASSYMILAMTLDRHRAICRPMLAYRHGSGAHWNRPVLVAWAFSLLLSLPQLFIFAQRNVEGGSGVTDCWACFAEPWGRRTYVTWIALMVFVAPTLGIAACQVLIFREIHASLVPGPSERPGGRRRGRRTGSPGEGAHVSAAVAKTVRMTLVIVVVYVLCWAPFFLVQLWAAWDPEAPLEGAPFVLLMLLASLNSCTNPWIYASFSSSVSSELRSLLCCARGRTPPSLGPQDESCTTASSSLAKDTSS
Description: as §1

Chain of V1a (P37288 whole entry): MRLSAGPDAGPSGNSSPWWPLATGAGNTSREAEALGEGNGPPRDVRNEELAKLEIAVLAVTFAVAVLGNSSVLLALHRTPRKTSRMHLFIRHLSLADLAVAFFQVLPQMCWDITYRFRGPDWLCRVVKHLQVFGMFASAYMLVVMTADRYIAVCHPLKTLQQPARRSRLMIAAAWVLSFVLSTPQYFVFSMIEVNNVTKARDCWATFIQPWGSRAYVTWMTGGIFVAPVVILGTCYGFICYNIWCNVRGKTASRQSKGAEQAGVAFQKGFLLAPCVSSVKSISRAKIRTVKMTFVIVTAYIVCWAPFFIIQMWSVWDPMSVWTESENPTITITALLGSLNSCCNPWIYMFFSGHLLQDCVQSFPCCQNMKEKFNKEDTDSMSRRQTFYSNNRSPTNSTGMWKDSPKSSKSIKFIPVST

Row | Compound | IC50 (V1a) | inhibition at 1 µM (human V2 receptor) | further results
1 | COc1ccc(C(=O)N2Cc3ccccc3CC3(C=CCCC3)C2)cc1OC (stereo not drawn) [Compound 153] | 0.55 µM | 0% | –
2 | O=C(c1ccc(-n2ccc(CO)c2)cc1)N1CCC2(C=CCCC2)Cc2ccccc21 (stereo not drawn) [Compound 154] | 0.025 µM | 36% | –
3 | O=C(c1ccc(-n2cccn2)c(-n2cccn2)c1)N1CCC2(C=CCCC2)Cc2ccccc21 (stereo not drawn) [Compound 155] | 0.13 µM | 2% | –
4 | O=C(c1ccc(-n2cccn2)c(F)c1)N1CCC2(C=CCCC2)Cc2ccccc21 (stereo not drawn) [Compound 156, 4-(3-Fluoro-4-(pyrazol-1-yl)benzoyl)-4-aza-[6,5]-spiro-[5,6]-benzododec-2′-ene] | 0.11 µM | 13% | –
5 | Cc1ccc(F)cc1C(=O)Nc1ccc(C(=O)N2CCC3(C=C(C(=O)NCCCN4CCCC4)CC3)Cc3ccccc32)cc1 (stereo not drawn) [Compound 157] | 0.016 µM | – | IC50 (human V2 receptor): 0.038 µM
6 | Cc1ccc(F)cc1C(=O)Nc1ccc(C(=O)N2CCC3(C=C(C(=O)NCCCN4CCOCC4)CC3)Cc3ccccc32)cc1 (stereo not drawn) [Compound 158] | 0.016 µM | – | IC50 (human V2 receptor): 0.039 µM
7 | Cc1ccc(F)cc1C(=O)Nc1ccc(C(=O)N2CCC3(C=C(C(=O)NCCO)CC3)Cc3ccccc32)cc1 (stereo not drawn) [Compound 159] | 0.011 µM | – | IC50 (human V2 receptor): 0.047 µM
8 | Cc1ccc(F)cc1C(=O)Nc1ccc(C(=O)N2CCC3(C=C(C(=O)NCCN4CCCC4)CC3)Cc3ccccc32)cc1 (stereo not drawn) [Compound 161] | 0.01 µM | – | IC50 (human V2 receptor): 0.072 µM
9 | CCOC(=O)C1=CC2(CC1)CCN(C(=O)c1ccc(NC(=O)c3ccccc3C)cc1)c1ccccc1C2 (stereo not drawn) [Compound 162] | 0.069 µM | – | inhibition at 0.25 µM (human V2 receptor): 42%
10 | O=C(c1ccc(-n2ccc(CO)c2)cc1Cl)N1CCC2(C=CCCC2)Cc2ccccc21 (stereo not drawn) [Compound 164] | 0.114 µM | – | inhibition at 0.25 µM (human V2 receptor): 20%
11 | COc1cc(-n2ccc(C=O)c2)ccc1C(=O)N1CCC2(C=CCCC2)Cc2ccccc21 (stereo not drawn) [Compound 166] | 0.114 µM | – | inhibition at 0.225 µM (human V2 receptor): 5%
12 | COc1cc(C(=O)N2CCC3(C=CCCC3)Cc3ccccc32)ccc1-n1ccc(C=O)c1 (stereo not drawn) [Compound 167, 4-(3-Methoxy-4-(pyrrol-1-yl-3-carboxaldehyde)benzoyl)-4-aza-[6,5]-spiro-[5,6]-benzododec-2′-ene] | 0.06 µM | – | inhibition at 0.225 µM (human V2 receptor): 19%
13 | CC(=O)N1CCC(Oc2ccc(C(=O)N3CCC4(C=CCCC4)Cc4ccccc43)cc2F)CC1 (stereo not drawn) [Compound 168, 4-(3-Fluoro-4-(N-acetylpiperidin-4-yloxy)benzoyl)-4-aza-[6,5]-spiro-[5,6]-benzododec-2′-ene] | – | 0% | inhibition at 0.1 µM (V1a): 50%
14 | COC(=O)CN1CCC(Oc2ccc(C(=O)N3CCC4(C=CCCC4)Cc4ccccc43)cc2F)CC1 (stereo not drawn) [Compound 169] | – | 0% | inhibition at 0.1 µM (V1a): 4%
15 | COc1cc(NC(=O)c2cc(F)ccc2C)ccc1C(=O)N1CCC2(C=C(C=O)CC2)Cc2ccccc21 (stereo not drawn) [Compound 170] | 0.055 µM | – | IC50 (human V2 receptor): 0.21 µM
16 | CC(=O)Oc1ccc(C(=O)N2CCC3(C=CCCC3)Cc3ccccc32)cc1 (stereo not drawn) [Compound 172] | – | 0% | inhibition at 0.1 µM (V1a): 15%
17 | CC(C)CCN1CCC(Oc2ccc(C(=O)N3CCC4(C=CCCC4)Cc4ccccc43)cc2F)CC1 (stereo not drawn) [Compound 173] | – | 0% | inhibition at 0.1 µM (V1a): 0%
18 | CCCCC(=O)N1CCC(Oc2ccc(C(=O)N3CCC4(C=CCCC4)Cc4ccccc43)cc2F)CC1 (stereo not drawn) [Compound 174] | – | 8% | inhibition at 0.1 µM (V1a): 0%
19 | COc1cc(NC(=O)c2cc(F)ccc2C)ccc1C(=O)N1CCC2(C=C(C(=O)O)CC2)Cc2ccccc21 (stereo not drawn) [Compound 175] | – | – | inhibition at 0.1 µM (V1a): 15%; IC50 (human V2 receptor): 0.11 µM
20 | CC(=O)c1ccn(-c2ccc(C(=O)N3CCC4(C=CCCC4)Cc4ccccc43)cc2F)c1 (stereo not drawn) [Compound 177] | 0.044 µM | 30% | –
21 | COc1cc(C(=O)N2CCC3(C=CCCC3)Cc3ccccc32)ccc1-n1ccc(CO)c1 (stereo not drawn) [Compound 178, 4-[3-Methoxy-4-(3-hydroxymethylpyrrol-1-yl)benzoyl]-4-aza-[6,5]-spiro-[5,6]benzododec-2′-ene] | 0.013 µM | 53% | –
22 | O=C(c1ccc(OCC2CC2)cc1)N1CCC2(C=CCCC2)Cc2ccccc21 (stereo not drawn) [Compound 181] | 0.066 µM | 31% | –
23 | COc1cc(C(=O)N2CCC3(C=CCCC3)Cc3ccccc32)ccc1NC(=O)c1cc(F)ccc1C (stereo not drawn) [Compound 182] | 0.062 µM | – | IC50 (human V2 receptor): 0.228 µM
24 | O=C(c1ccc(OCc2ccccc2)cc1)N1CCC2(C=CCCC2)Cc2ccccc21 (stereo not drawn) [Compound 184] | 0.086 µM | 34% | –
25 | CCN(C(=O)NCCCN(C)C)C(=O)C1=CC2(CC1)CCN(C(=O)c1ccc(N)c(OC)c1)c1ccccc1C2 (stereo not drawn) [Compound 188] | – | 3% | inhibition at 1 µM (V1a): 27%
26 | COc1cc(C(=O)N2CCC3(C=C(C(=O)NCCN(C)C)CC3)Cc3ccccc32)ccc1-n1ccc(C=O)c1 (stereo not drawn) [Compound 189, 4-[3-Methoxy-4-(pyrrol-1-yl-3-carboxaldehyde)benzoyl]-3′-[2-(N,N-dimethylamino)ethylcarboxamido]-4-aza-[6,4]-spiro-[5,6]-benzoundec-2′-ene] | 0.045 µM | 13% | –

Second part, led by results:

Row | IC50 (V1a) | inhibition at 1 µM (human V2 receptor) | Compound | further results
27 | 0.084 µM | 13% | O=Cc1ccn(-c2ccc(C(=O)N3CCC4(C=CCCC4)Cc4ccccc43)cc2)c1 (stereo not drawn) [Compound 152] | –
28 | 0.011 µM | – | Cc1ccc(F)cc1C(=O)Nc1ccc(C(=O)N2CCC3(C=C(C(=O)NCCN4CCCCC4)CC3)Cc3ccccc32)cc1 (stereo not drawn) [Compound 160] | IC50 (human V2 receptor): 0.082 µM
29 | 0.042 µM | – | COc1cc(-n2ccc(CO)c2)ccc1C(=O)N1CCC2(C=CCCC2)Cc2ccccc21 (stereo not drawn) [Compound 165] | inhibition at 0.25 µM (human V2 receptor): 25%
30 | – | 65% | CCCCN1CCC(Oc2ccc(C(=O)N3CCC4(C=CCCC4)Cc4ccccc43)cc2F)CC1 (stereo not drawn) [Compound 171] | inhibition at 0.1 µM (V1a): 24%
31 | 0.096 µM | 15% | CC(C)CCOc1ccc(C(=O)N2CCC3(C=CCCC3)Cc3ccccc32)cc1 (stereo not drawn) [Compound 179] | –
32 | 0.088 µM | 20% | O=C(c1ccc(OC2CCCC2)cc1)N1CCC2(C=CCCC2)Cc2ccccc21 (stereo not drawn) [Compound 180] | –
33 | 0.25 µM | 18% | O=C(c1ccc(OCC2CCCCC2)cc1)N1CCC2(C=CCCC2)Cc2ccccc21 (stereo not drawn) [Compound 183] | –
34 | 0.23 µM | 42% | O=C(c1ccc(OC2CCCCC2)cc1)N1CCC2(C=CCCC2)Cc2ccccc21 (stereo not drawn) [Compound 185] | –
35 | – | 11% | COc1cc(C(=O)N2CCC3(C=C(C(=O)NCCN(C)C)CC3)Cc3ccccc32)ccc1[N+](=O)[O-] (stereo not drawn) [Compound 186, 4-(3-Methoxy-4-nitrobenzoyl)-4-aza-3′-[2-(N,N-dimethylamino)ethylcarboxamido]-[6,4]-spiro-[5,6]benzoundec-2′-ene] | inhibition at 1 µM (V1a): 48%
36 | – | 7% | COc1cc(C(=O)N2CCC3(C=C(C(=O)NCCN(C)C)CC3)Cc3ccccc32)ccc1N (stereo not drawn) [Compound 187, 4-(4-Amino-3-methoxybenzoyl)-4-aza-3′-[2-(N,N-dimethylamino)ethylcarboxamido]-[6,4]-spiro-[5,6]-benzoundec-2′-ene] | inhibition at 1 µM (V1a): 54%
